In patent publication US10905679B2, “TRPM8 receptor agonist compounds and uses thereof” (UNIVERSIDAD MIGUEL HERNANDEZ DE ELCHE, priority 2016, dated 2021):

Assays:
[1] = tested on: TRPM8, TRPV1 and TRPA1 channels; assay: Specificity by Ca2+ fluorescence microscopy in mouse dorsal root ganglion (DRG) neurons; assay type: cell-based; settings: Fluo-4 AM fluorescence, FIG. 1
Procedure: Neurons obtained from a mouse dorsal root ganglion (DRG) were used to determine the specificity of the TZM-7 compound. These cells constitutively express the TRPM8, TRPV1 and TRPA1 channels, among others (the TRPV1 and TRPA1 channels are channels of the same family as the TRPM8 channel and are permeable to calcium). The intracellular Ca^2+ concentration was measured using fluorescence microscopy in order to view the activity of these channels. The cells were seeded with a density of 250,000 cells/well on round glass cover slips (18 mm diameter, […]) in 12-well plates (Costar) and cultured in Pure-EMEM during 3 days immediately before the Ca^2+ experiments. […] The cells that were not sensitive to the application of high potassium concentration were not analysed. […] The fluorescence measurements were taken using an Axiovert 200 inverted microscope from Zeiss (Oberkochen, Germany) coupled with an ORCA-ER CCD camera (Hamamatsu Photonics, Bridgewater, N.J.) and observed through a 10× magnification air lens. The Fluo-4 AM fluorescent probe was excited at 500 nm using a Lambda-10-2 filter wheel (Sutter Instruments, Novato, Calif.) and the emission fluorescence was filtered with a 535 nm longpass filter. […]

guinea pig = assay: In vivo tear secretion measured using phenol red threads after ocular instillation; settings: 10 μM, phenol red thread 30 seconds, p<0.05, comparable to menthol at 200 μM, FIG. 2
Excerpt: The in vivo activity of the selected TRPM8 activating compounds (TZM-7) has been assessed in an animal model following the protocol described in Acosta M C et al., Invest Ophthalmol Vis Sci 2014 (Corneal sensory nerve activity in an experimental model of UV keratitis. Acosta M et al., Invest Ophthalmol Vis Sci May 1; 55(6):3403-12). […] Tear secretion can be measured using phenol red threads (Zone-Quick, Menicon, Nagoya, Japan) that are applied to the nasal edge of the lower eyelid for 30 seconds (after that time, the distance of the red-dyed thread is measured in mm).

TRPM8 = target: T1, TRPM8 (Homo sapiens, UniProt Q7Z2W7); assay: Ca2+ fluorimetry assay in CHO cell line stably expressing TRPM8; assay type: cell-based; settings: CHO cells stably expressing TRPM8
T1 construct: expressed in transfected cells
Procedure: The cells were cultured in monolayer in EMEM medium (Earle's minimum essential medium with Earle's salts, Invitrogen) supplemented with 10% foetal bovine serum (FBS), 2 mM L-glutamine, 1% penicillin-streptomycin solution and […] of the Geneticin antibiotic (Sigma) and kept at 37° C. in a humidified atmosphere with 5% of CO2. Ca^2+ fluorimetry assays were carried out in order to determine the efficacy of the compounds on the TRPM8 channels. The cells were seeded in 96-well plates with a density of 25,000 cells per well. Three days after seeding, the medium was removed and 100 μl of the Fluo-4NW fluorescent probe from Invitrogen was added with a concentration of 5 μM in the presence of 0.02% pluronic acid; after 60 minutes of incubation at 37° C. in a humidified atmosphere with 5% of CO2, the fluorescence was measured in a microplate reader (POLARstar Omega) with a configuration of 485 nm for the excitation and 520 nm for the emission, during 20 cycles. […] In the wells that were used as negative controls, 1 μl of AMTB [N-(3-aminopropyl)-2-[(3-methylphenyl)methoxy]-N-(2-thienylmethyl)benzamide] was added to obtain a final concentration of 10 μM, to block the TRPM8 channels.
The amplitudes of the Ca^2+ increases, caused by the stimulation of the cells with the compounds, were measured by subtracting the basal fluorescence signal (mean intensity obtained before adding the compound) from the fluorescence peak obtained after applying the compounds. The obtained results were adjusted to a sigmoid function using the software suite of the GraphPad Prism computer program.

T1 sequence (Q7Z2W7 whole entry): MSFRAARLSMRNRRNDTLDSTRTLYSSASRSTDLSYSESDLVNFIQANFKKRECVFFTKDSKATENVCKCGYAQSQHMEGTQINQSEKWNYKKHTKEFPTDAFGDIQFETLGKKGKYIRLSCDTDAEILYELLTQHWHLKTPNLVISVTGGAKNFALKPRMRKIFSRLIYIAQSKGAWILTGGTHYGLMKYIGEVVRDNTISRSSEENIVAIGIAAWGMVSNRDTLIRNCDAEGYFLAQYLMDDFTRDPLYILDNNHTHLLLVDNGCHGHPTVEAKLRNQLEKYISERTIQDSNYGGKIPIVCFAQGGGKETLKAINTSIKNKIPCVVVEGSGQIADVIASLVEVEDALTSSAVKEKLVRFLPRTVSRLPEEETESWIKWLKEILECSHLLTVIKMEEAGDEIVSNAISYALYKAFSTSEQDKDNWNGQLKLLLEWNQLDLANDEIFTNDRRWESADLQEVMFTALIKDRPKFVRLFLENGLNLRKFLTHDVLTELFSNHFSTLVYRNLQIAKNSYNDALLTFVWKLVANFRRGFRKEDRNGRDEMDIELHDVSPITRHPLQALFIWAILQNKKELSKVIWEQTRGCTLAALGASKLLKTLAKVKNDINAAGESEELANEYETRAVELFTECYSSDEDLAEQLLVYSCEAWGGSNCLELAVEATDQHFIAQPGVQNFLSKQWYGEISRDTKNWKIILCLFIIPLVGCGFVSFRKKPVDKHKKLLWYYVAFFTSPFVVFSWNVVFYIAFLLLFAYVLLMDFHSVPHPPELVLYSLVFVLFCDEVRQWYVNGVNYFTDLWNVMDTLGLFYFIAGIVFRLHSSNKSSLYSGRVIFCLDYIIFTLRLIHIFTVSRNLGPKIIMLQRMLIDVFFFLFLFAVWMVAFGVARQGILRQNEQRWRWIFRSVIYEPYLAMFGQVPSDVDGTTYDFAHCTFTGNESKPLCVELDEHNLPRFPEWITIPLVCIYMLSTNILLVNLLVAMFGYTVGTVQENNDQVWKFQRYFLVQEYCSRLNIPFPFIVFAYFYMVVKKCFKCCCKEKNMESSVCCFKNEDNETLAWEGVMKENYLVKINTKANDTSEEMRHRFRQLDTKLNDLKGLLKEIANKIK

activation at 10 µM (TRPM8; 10 μM, Fluo-4NW fluorescence): 78.5 ± 30.6%
EC50 (TRPM8; concentrations 0.1, 1, 10 and 100 μM, sigmoid fit): 2910 ± 210 nM
SMILES: COc1cc(OC)cc(-c2cn([C@@H]3C[C@H](C)CC[C@H]3C(C)C)nn2)c1 [TZM-7, 4-(3,5-dimethoxyphenyl)-1-((1R,2S,5R)-2-isopropyl-5-methylcyclohexyl)-1H-1,2,3-triazole]
specificity to activate TRPM8 channels compared with other channels (TRPV1 and TRPA1) [1]: high specificity
rate of lachrymation (tear secretion) (guinea pig): significantly increases the rate of lachrymation
